From ChEMBL document CHEMBL4351016 (Eur J Med Chem, 2019) come the findings set out here.

Assay [1] has as its system CWR22R. Description: Antiproliferative activity against AR-positive human 22Rv1 cells harboring ARE14 construct assessed as growth inhibition after 72 hrs by resazurin dye based fluorescence assay. Format: functional. As to conditions: 22Rv1, 72 h.
The test system of assay [2] is LNCaP C4-2. Description: Antiproliferative activity against AR-positive human C4-2 cells assessed as growth inhibition after 72 hrs by resazurin dye based fluorescence assay. Type of assay: functional. The settings on record: LNCaP C4-2, 72 h.
Assay [3] relates to PC-3. Description: Antiproliferative activity against AR-negative human PC3 cells assessed as growth inhibition after 72 hrs by resazurin dye based fluorescence assay. Format: functional. The settings on record: PC-3, 72 h.
In assay [4] the test system is VCaP. Description: Antiproliferative activity against AR-positive human VCaP cells assessed as cell viability at 40 uM after 72 hrs by resazurin dye based fluorescence assay. The settings on record: read-out: Activity. Format: functional.
The subject of assay [5] is VCaP. Description: Antiproliferative activity against AR-positive human VCaP cells assessed as growth inhibition after 72 hrs by resazurin dye based fluorescence assay. Type of assay: functional.
In assay [6] the test system is LNCaP C4-2. Description: Antiproliferative activity against AR-positive human C4-2 cells assessed as cell viability at 40 uM after 72 hrs by resazurin dye based fluorescence assay. Format: functional. As to conditions: LNCaP C4-2, 72 h, read-out: Activity.
The subject of assay [7] is PC-3. Description: Antiproliferative activity against AR-negative human PC3 cells assessed as cell viability at 40 uM after 72 hrs by resazurin dye based fluorescence assay. Format: functional. The settings on record: PC-3, 72 h, read-out: Activity.
In assay [8] the test system is CWR22R. Description: Antiproliferative activity against AR-positive human 22Rv1 cells harboring ARE14 construct assessed as cell viability at 40 uM after 72 hrs by resazurin dye based fluorescence assay. Format: functional. As to conditions: 22Rv1, 72 h, read-out: Activity.
Assay [9] concerns the target T1, Androgen receptor (Homo sapiens) (UniProt P10275).
T1 sequence (whole entry): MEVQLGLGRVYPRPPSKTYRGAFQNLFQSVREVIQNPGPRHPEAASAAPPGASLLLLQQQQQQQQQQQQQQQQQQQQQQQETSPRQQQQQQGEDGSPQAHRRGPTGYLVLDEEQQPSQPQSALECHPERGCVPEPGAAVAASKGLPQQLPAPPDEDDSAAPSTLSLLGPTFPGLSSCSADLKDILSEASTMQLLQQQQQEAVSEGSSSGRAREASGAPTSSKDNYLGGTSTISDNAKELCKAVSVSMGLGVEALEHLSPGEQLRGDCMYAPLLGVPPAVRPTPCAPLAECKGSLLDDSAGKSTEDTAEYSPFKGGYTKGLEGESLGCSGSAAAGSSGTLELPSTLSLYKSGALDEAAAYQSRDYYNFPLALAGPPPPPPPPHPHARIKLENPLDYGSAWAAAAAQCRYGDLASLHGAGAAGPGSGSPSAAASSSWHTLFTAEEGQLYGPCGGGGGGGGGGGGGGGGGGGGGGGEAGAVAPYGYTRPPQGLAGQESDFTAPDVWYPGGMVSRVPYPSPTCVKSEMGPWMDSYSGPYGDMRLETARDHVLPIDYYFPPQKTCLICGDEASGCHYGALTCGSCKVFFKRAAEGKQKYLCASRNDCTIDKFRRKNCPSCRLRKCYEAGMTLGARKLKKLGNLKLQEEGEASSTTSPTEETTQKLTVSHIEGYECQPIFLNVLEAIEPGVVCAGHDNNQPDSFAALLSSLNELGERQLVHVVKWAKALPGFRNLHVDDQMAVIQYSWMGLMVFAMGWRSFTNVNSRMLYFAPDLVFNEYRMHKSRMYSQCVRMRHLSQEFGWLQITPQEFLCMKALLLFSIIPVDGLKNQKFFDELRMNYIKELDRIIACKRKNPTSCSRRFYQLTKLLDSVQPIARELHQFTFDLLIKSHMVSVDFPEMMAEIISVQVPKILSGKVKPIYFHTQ
The settings on record: at 10 µM.
Description: Inhibition of R1881 induced-AR transcriptional activity in AR-positive human 22Rv1 cells harboring ARE14 construct at 10 uM after 24 hrs by luciferase assay relative to control

The target of assay [10] is T1, Androgen receptor (Homo sapiens). Description: Inhibition of R1881 induced-AR transcriptional activity in AR-positive human 22Rv1 cells harboring ARE14 construct assessed as suppression of PSA expression at 5 uM after 24 hrs by immunoblot analysis.
Assay [11] concerns VCaP. Description: Induction of apoptosis in R1881-stimulated AR-positive human VCaP cells assessed as caspase-3/7 activation at 20 uM using Ac-DEVD-AMC as substrate after 24 to 72 hrs by fluorescence based microplate reader analysis. Type of assay: functional, cell-based.
Assay [12] has as its target T1, Androgen receptor (Homo sapiens). Description: Inhibition of R1881-stimulated AR transcriptional activity in AR-positive human VCaP cells assessed as decrease in NKX3.1 protein expression at 20 uM after 48 hrs by immunoblot analysis. Type of assay: cell-based.
Assay [13] shares this target. Description: Inhibition of R1881 induced-AR transcriptional activity in AR-positive human 22Rv1 cells harboring ARE14 construct assessed as suppression of NKX3.1 expression at 5 uM after 24 hrs by immunoblot analysis.
Assay [14] relates to VCaP. Description: Downregulation of AR protein expression in R1881-stimulated AR-positive human VCaP cells at 20 uM after 48 hrs by immunoblot analysis. Format: functional, cell-based.
For assay [15], the target named is T1, Androgen receptor (Homo sapiens). Description: Inhibition of R1881-stimulated AR transcriptional activity in AR-positive human VCaP cells assessed as NKX3.1 protein expression at 20 uM after 24 hrs by immunoblot analysis. Format: cell-based.
Assay [16] concerns VCaP. Description: Induction of apoptosis in R1881-stimulated AR-positive human VCaP cells assessed as PARP cleavage at 20 uM after 24 to 72 hrs by immunoblot analysis. Format: functional, cell-based.
Assay [17] concerns CWR22R. Description: Induction of apoptosis in R1881-activated AR-positive human 22Rv1 cells harboring ARE14 construct assessed as cleaved PARP level at 5 uM after 24 hrs by immunoblot analysis. Type of assay: functional, cell-based.
The target in assay [18] is T1, Androgen receptor (Homo sapiens). Description: Inhibition of AR transcriptional activity in AR-positive human 22Rv1 cells harboring ARE14 construct assessed as downregulation of NKX3.1 protein expression at 5 uM after 24 hrs by immunoblot analysis.
For the next assay, the system named is BJ. Description: Antiproliferative activity against human BJ cells assessed as growth inhibition after 24 hrs by resazurin dye based fluorescence assay. Type of assay: functional.
Assay [19] concerns the target T1, Androgen receptor (Homo sapiens). Description: Inhibition of R1881-stimulated AR transcriptional activity in AR-positive human VCaP cells assessed as decrease in PSA protein expression at 20 uM after 48 hrs by immunoblot analysis. Type of assay: cell-based.
Another assay deals with T2, Androgen receptor (Homo sapiens, UniProt P10275).
T2 sequence (P10275 whole entry): T1 sequence (whole entry)
Description: (§1) Inhibition of R1881 induced-AR transcriptional activity in AR-positive human 22Rv1 cells harboring ARE14 construct after 24 hrs by luciferase assay.

In assay [20] the target is T1, Androgen receptor (Homo sapiens). The assay is described as §1.
Assay [21] relates to CWR22R. Description: Inhibition of colony formation in AR-positive human 22Rv1 cells harboring ARE14 construct at 0.625 to 10 uM incubated for 10 days by crystal violet staining based analysis. Type of assay: functional, cell-based.
For assay [22], the target named is T1, Androgen receptor (Homo sapiens). Description: Inhibition of R1881-stimulated AR transcriptional activity in AR-positive human VCaP cells assessed as PSA protein expression at 20 uM after 24 hrs by immunoblot analysis. Type of assay: cell-based.
Assay [23] relates to CWR22R. Description: Antiproliferative activity against AR-positive human 22Rv1 cells harboring ARE14 construct assessed as growth inhibition after 24 hrs by resazurin dye based fluorescence assay. Type of assay: functional. The settings on record: 22Rv1, 24 h.
The test system of assay [24] is CWR22R. Description: Effect on AR-V7 protein expression in AR-positive human 22Rv1 cells harboring ARE14 construct at 5 uM after 24 hrs by immunoblot analysis. Type of assay: functional, cell-based.

Active and inactive are the calls of the source. The rule behind the calls is not given here. Bounds are passed on as bounds.

With `C[C@]12CC[C@H](O)CC1=CC[C@@H]1[C@@H]2CC[C@]2(C)C(n3cnc4ccccc43)=CC[C@@H]12` [GALETERONE], the GI50 in the assay on CWR22R [1] was 37.8 µM; with LNCaP C4-2 [2] it was over 40 µM; in the assay with PC-3 [3] it was 37.7 µM; in the assay with VCaP [5], over 40 µM. Moreover, the viability at 40 µM with VCaP [4] is 57.2%; in the assay with LNCaP C4-2 [6], 74.3%.
For the compound `CNC(=O)c1ccc(N2C(=S)N(c3ccc(C#N)c(C(F)(F)F)c3)C(=O)C2(C)C)cc1F` [ENZALUTAMIDE], the viability at 40 µM in the assay with PC-3 [7] was 74%; in the assay with CWR22R [8], 84%; in the assay with VCaP [4], 61.2%; in the assay with LNCaP C4-2 [6], 91.5%. The GI50 in the assay on CWR22R [1], with LNCaP C4-2 [2], with PC-3 [3] and in the assay with VCaP [5] was over 40 µM throughout.
As to `CC(=O)O[C@H]1CC[C@@]2(C)C(=CC[C@@H]3[C@@H]2CC[C@]2(C)c4c(C)nc5[nH]c6ccccc6c5c4C[C@@H]32)C1`, the inhibition in assay [9] was 29%; in assay [20], “Dose-dependent effect”. Besides, the inhibition result (in assay [10]; in [12]; in [13]; in the assay on VCaP [14]; in [19]; with CWR22R [21]) was “Active” in each case. Also, the result in the assay on VCaP [11] and in the assay on VCaP [16] was Active. For the same compound, the inhibition entry in assay [15] and in assay [22] was “inactive” throughout. Besides, the outcome in the assay on CWR22R [17] and with CWR22R [24] was inactive. The GI50 was 1.4 µM in the assay with CWR22R [1]; over 50 µM in the assay with BJ; 1.7 µM in the assay with LNCaP C4-2 [2]; over 100 µM with PC-3 [3]; 2 µM with VCaP [5]; over 50 µM in the assay with CWR22R [23]. In addition, the “NKX3.1 protein downregulation (active/not active)” value in [18] is “Active”. For the same compound, at Androgen receptor, the midpoint of inhibition, the IC50, lay at 0.315 µM.
